Measured values reported in paper PMC5789083, “Mechanisms driving the antibacterial and antibiofilm properties of Hp1404 and its analogue peptides against multidrug-resistant Pseudomonas aeruginosa” (Scientific Reports, 2018).
Values after ≈ are worked out from the molar mass of the structure shown. Like-named read-outs stand apart in the source and are kept apart here.

How the values were obtained:
[1] = tested on: Pseudomonas aeruginosa and MRPA strains; test: microbe, parasite or virus in culture; assay type: cell-based; conditions: broth micro-dilution, 37 °C, 18–24 h
From the text: Gram-negative (Pseudomonas aeruginosa ATCC 27853) bacterial strains were obtained from the ATCC (American Type Culture Collection; Manassas, VA, USA). Multidrug-resistant strains (Pseudomonas aeruginosa 138, 431, 434, 557, 559, 778, 1034, 1162, 3290, 3399, 3592, 3904, 4007, 4319, 4891, 5018, and 671973) were obtained from the Chonnam National University Hospital (Gwangju, South Korea).
We examined the activity of each peptide against both pseudomonas aeruginosa and multidrug-resistant strains. The minimal inhibitory concentrations (MICs) of peptides were determined using the broth micro-dilution assay as described previously. Briefly, bacterial strains were cultivated with shaking overnight at 37 °C. The next day, they were diluted to a density of 2 × 10^5 CFU/mL with growth medium. Peptides were serially diluted with 10 mM sodium phosphate buffer. 50 µL bacterial aliquots were mixed with an equal volume of peptide solution, and incubated at 37 °C for 18–24 h. Inhibition of bacterial growth was determined by measuring the absorbance at 600 nm using a Versa Max microplate reader (Molecular Devices, Sunnyvale, CA, USA). The test was performed in triplicate.

[2] = tested on: P. aeruginosa strains (biofilm formation); assay type: cell-based, Pseudomonas aeruginosa; conditions: 24 h, 37 °C, crystal violet OD595
Description: To evaluate the ability of bacterial strains to form biofilms either in the absence or presence of peptides, antibiotic-susceptible P. aeruginosa (ATCC 27853), and various strains of MDR P. aeruginosa were cultured in nutrient broth (NB). […]. The biofilms were fixed with 100% methanol for 15 min, stained with 0.1% crystal violet (CV) for 1 h, and rinsed three times with distilled water (dH2O). After the addition of 95% ethanol, biofilm mass was quantified by measuring OD at 595 nm using a Versa-Max microplate ELISA reader (Molecular Devices). Results were expressed as the percentage of biofilm formed with respect to the control. […] All experiments were performed at least in triplicate.

[3] = tested on: P. aeruginosa 1034 biofilm; test: LIVE/DEAD BacLight (SYTO9/PI) staining of biofilms; assay type: cell-based, Pseudomonas aeruginosa; conditions: even at 400 µM; P. aeruginosa 1034, 24 h, 37 °C
Description: Visualization of the remaining bacteria in the biofilm was achieved using the LIVE/DEAD BacLight Bacterial Viability Kit (Molecular Probes, Eugene, OR, USA), and an IX71 inverted fluorescence microscope (Olympus, Tokyo, Japan) was used for observation[58],[59]. Briefly, bacterial suspensions (5 × 10^5 CFU/mL) were incubated with 0.5× MBIC or 1× MBIC of the peptides, for 24 h at 37 °C. Following incubation, biofilms were stained with pre-mixed dye (SYTO-9 and propidium iodide) for 30 min in the dark; images were obtained using the aforementioned microscope.

[4] = tested on: P. aeruginosa 1034; assay type: in vivo; conditions: BALB/c mice, intradermal P. aeruginosa 1034
Description: BALB/c mice (6 weeks old) were used in this study. The mice were shaved and intradermally injected with 20 µl of P. aeruginosa (1 × 10^8 CFU/ml) in PBS.

[5] = tested on: mouse red blood cells; test: Hemolytic activity; assay type: cell-based; conditions: at 12.5 M (so in the source); mouse RBCs, positive control
Description: The hemolytic activities of the peptides were determined as previously described. Fresh mouse red blood cells (RBCs) were washed and diluted to 8% with PBS. RBC suspension was added to 96-well plates (100 µL/well), mixed with an equal volume of serially diluted peptides, and incubated at 37 °C for 1 h with gentle shaking. The plate was centrifuged and the supernatant was transferred to a 96-well plate. The absorbance at 414 nm was measured with a Versa-Max ELISA reader (Molecular Devices). PBS and 0.1% Triton X-100 were used as negative and positive controls, respectively. The experiment was performed in triplicate. The hemolysis rate was calculated using the following formula[55]: % Hemolysis = [(Abs 414 nm in the peptide solution-Abs 414 nm in PBS)/(Abs 414 nm in 0.1% Triton X-100-Abs 414 nm in PBS)] × 100

[6] = tested on: HaCaT cells; test: Cytotoxicity, MTT assay; assay type: cell-based, human; conditions: 3.13 µM, 24 h
Description: We used the MTT assay to evaluate the toxicity of the peptides toward human skin epithelial cells (HaCaT) as previously described. Briefly, HaCaT cells were seeded at a density of 2 × 10^4 cells per well in 96-well microtiter plates in Dulbecco’s modified Eagle’s medium (DMEM) containing 10% foetal bovine serum (FBS) at 37 °C under 5% CO2 atmosphere. The next day, peptides were added to each well at various final concentrations (higher concentration of 200 µM). After 24 h incubation, culture supernatants were removed. 0.5 mg/mL MTT was added to each well, and the plates were incubated for 4 h at 37 °C. The medium was replaced by dimethyl sulfoxide (DMSO) to dissolve the formazan crystals formed in the wells. The absorbance at 570 nm was measured using a Versa-Max microplate ELISA reader (Molecular Devices). The viability rate was calculated using the following formula: Cell viability (%) = (absorbance of treated sample)/(absorbance of control) × 100.

In the case of `O=C(O)c1cn(C2CC2)c2cc(N3CCNCC3)c(F)cc2c1=O` [Ciprofloxacin, ciprofloxacin, reference compound], the MIC ([1]; Pseudomonas aeruginosa, ATCC27853, P. aeruginosa ATCC 27853, 2 × 10^5 CFU/mL, A600, triplicate) is reported as 1.56 µM (≈ 0.517 µg/mL), the MIC ([1]; Pseudomonas aeruginosa, P. aeruginosa 138 (multidrug-resistant), triplicate) is reported as greater than 400 µM and the MIC ([1]; Pseudomonas aeruginosa, P. aeruginosa 431 (multidrug-resistant), triplicate) is reported as greater than 400 µM. For the same molecule, the MIC ([1]; Pseudomonas aeruginosa, P. aeruginosa 434 (multidrug-resistant), triplicate) was greater than 400 µM, the MIC ([1]; Pseudomonas aeruginosa, P. aeruginosa 557 (multidrug-resistant), triplicate) was greater than 400 µM and the MIC ([1]; Pseudomonas aeruginosa, P. aeruginosa 559 (multidrug-resistant), triplicate) was greater than 400 µM. The MIC ([1]; Pseudomonas aeruginosa, P. aeruginosa 778 (multidrug-resistant), triplicate) was greater than 400 µM, the MIC ([1]; Pseudomonas aeruginosa, P. aeruginosa 1034 (multidrug-resistant), triplicate) was greater than 400 µM and the MIC ([1]; Pseudomonas aeruginosa, P. aeruginosa 1162 (multidrug-resistant), triplicate) was greater than 400 µM. The MIC ([1]; Pseudomonas aeruginosa, P. aeruginosa 3290 (multidrug-resistant), triplicate) was greater than 400 µM, the MIC ([1]; Pseudomonas aeruginosa, P. aeruginosa 3399 (multidrug-resistant), triplicate) was greater than 400 µM and the MIC ([1]; Pseudomonas aeruginosa, P. aeruginosa 3543 (multidrug-resistant), triplicate) was 400 µM (≈ 133 µg/mL). For the same molecule, the MIC ([1]; Pseudomonas aeruginosa, P. aeruginosa 3592 (multidrug-resistant), triplicate) was greater than 400 µM, the MIC ([1]; Pseudomonas aeruginosa, P. aeruginosa 3904 (multidrug-resistant), triplicate) was 400 µM (≈ 133 µg/mL) and the MIC ([1]; Pseudomonas aeruginosa, P. aeruginosa 4007 (multidrug-resistant), triplicate) was greater than 400 µM. It also gave an MIC ([1]; Pseudomonas aeruginosa, P. aeruginosa 4319 (multidrug-resistant), triplicate) greater than 400 µM, an MIC ([1]; Pseudomonas aeruginosa, P. aeruginosa 4891 (multidrug-resistant), triplicate) greater than 400 µM and an MIC ([1]; Pseudomonas aeruginosa, P. aeruginosa 5018 (multidrug-resistant), triplicate) greater than 400 µM. It also gave an MIC ([1]; Pseudomonas aeruginosa, P. aeruginosa 671973 (multidrug-resistant), triplicate) of 100 µM (≈ 33.1 µg/mL), an MBIC ([2]; P. aeruginosa 434) greater than 400 µM and an MBIC ([2]; P. aeruginosa 559) greater than 400 µM. For the same molecule, the MBIC ([2]; P. aeruginosa 778) was greater than 400 µM, the MBIC ([2]; P. aeruginosa 1034) was greater than 400 µM and the MBIC ([2]; P. aeruginosa 1162) was greater than 400 µM. It also gave an MBIC ([2]; P. aeruginosa 3399) greater than 400 µM, an MBIC ([2]; P. aeruginosa 3543) greater than 400 µM and an MBIC ([2]; P. aeruginosa 4007) greater than 400 µM. For the same molecule, the “biofilm formation by the MRPA strain (live/dead staining)” value [3] was “did not inhibit biofilm formation”, the “killing of bacteria in infected skin” value ([4]; day 7) was “did not kill the bacteria” and the “decrease in number of colonies” value ([4]; until 4 days) was “about 60%”.

With `CC[C@H](C)[C@H](NC(=O)CN)C(=O)NCC(=O)N[C@@H](C)C(=O)N[C@H](C(=O)N[C@@H](CC(C)C)C(=O)N[C@@H](CCCCN)C(=O)N[C@H](C(=O)N[C@@H](CC(C)C)C(=O)N[C@H](C(=O)N[C@H](C(=O)NCC(=O)N[C@@H](CC(C)C)C(=O)N1CCC[C@H]1C(=O)N[C@@H](C)C(=O)N[C@@H](CC(C)C)C(=O)N[C@H](C(=O)N[C@@H](CO)C(=O)N[C@@H](Cc1c[nH]c2ccccc12)C(=O)N[C@H](C(=O)N[C@@H](CCCCN)C(=O)N[C@@H](CCCNC(=N)N)C(=O)N[C@@H](CCCCN)C(=O)N[C@@H](CCCNC(=N)N)C(=O)N[C@@H](CCC(N)=O)C(=O)N[C@@H](CCC(N)=O)C(N)=O)[C@@H](C)CC)[C@@H](C)CC)[C@@H](C)O)[C@@H](C)O)C(C)C)C(C)C` [Melittin, reference compound] the MIC ([1]; P. aeruginosa 138 (multidrug-resistant), triplicate) was 3.13 µM (≈ 8.91 µg/mL), the MIC ([1]; P. aeruginosa 431 (multidrug-resistant), triplicate) was 3.13 µM (≈ 8.91 µg/mL) and the MIC ([1]; P. aeruginosa 434 (multidrug-resistant), triplicate) was 3.13 µM (≈ 8.91 µg/mL). It also gave an MIC ([1]; P. aeruginosa 557 (multidrug-resistant), triplicate) of 1.56 µM (≈ 4.44 µg/mL), an MIC ([1]; P. aeruginosa 559 (multidrug-resistant), triplicate) of 3.13 µM (≈ 8.91 µg/mL) and an MIC ([1]; P. aeruginosa 778 (multidrug-resistant), triplicate) of 3.13 µM (≈ 8.91 µg/mL). For the same molecule, the MIC ([1]; P. aeruginosa 1034 (multidrug-resistant), triplicate) was 1.56 µM (≈ 4.44 µg/mL), the MIC ([1]; P. aeruginosa 1162 (multidrug-resistant), triplicate) was 3.13 µM (≈ 8.91 µg/mL) and the MIC ([1]; P. aeruginosa 3290 (multidrug-resistant), triplicate) was 3.13 µM (≈ 8.91 µg/mL). The MIC ([1]; P. aeruginosa 3399 (multidrug-resistant), triplicate) was 3.13 µM (≈ 8.91 µg/mL), the MIC ([1]; P. aeruginosa 3543 (multidrug-resistant), triplicate) was 3.13 µM (≈ 8.91 µg/mL) and the MIC ([1]; P. aeruginosa 3592 (multidrug-resistant), triplicate) was 3.13 µM (≈ 8.91 µg/mL). The MIC ([1]; P. aeruginosa 3904 (multidrug-resistant), triplicate) was 3.13 µM (≈ 8.91 µg/mL), the MIC ([1]; P. aeruginosa 4007 (multidrug-resistant), triplicate) was 3.13 µM (≈ 8.91 µg/mL) and the MIC ([1]; P. aeruginosa 4319 (multidrug-resistant), triplicate) was 3.13 µM (≈ 8.91 µg/mL). The MIC ([1]; P. aeruginosa 4891 (multidrug-resistant), triplicate) was 1.56 µM (≈ 4.44 µg/mL), the MIC ([1]; P. aeruginosa 5018 (multidrug-resistant), triplicate) was 3.13 µM (≈ 8.91 µg/mL) and the MIC ([1]; P. aeruginosa 671973 (multidrug-resistant), triplicate) was 1.56 µM (≈ 4.44 µg/mL). For the same molecule, the MIC ([1]; P. aeruginosa ATCC 27853, 2 × 10^5 CFU/mL, A600, triplicate) was 3.13 µM (≈ 8.91 µg/mL), the hemolysis [5] was “complete hemolysis” and the “survival of HaCaT cells” value [6] was “no living cells were detected”.
